In patent publication US8952024B2, “Herbicidal pyrimidone derivatives” (E I du Pont de Nemours and Company, priority 2009, dated 2015):

Columns and labels:
Experiment in all cases: Test D pre-/postemergence plant response
Assay type in all cases: in vivo
[1] = tested on: nutsedge (purple nutsedge, Cyperus rotundus)
In short: (§1)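 Under greenhouse conditions for 14 to 21 days, plants treated pre- or postemergence with surfactant-formulated compound were compared by eye with untreated controls and scored 0–100 (100 = complete control; dash = no result).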

[2] = tested on: sowthistle (common sowthistle, Sonchus oleraceous)
In short: as §1

[3] = tested on: mallow (common mallow, Malva sylvestris)
In short: as §1

[4] = tested on: guineagrass (Panicum maximum)
In short: as §1

[5] = tested on: spanishneedles (Bidens bipinnata)
In short: as §1

[6] = tested on: bermudagrass (Cynodon dactylon)
In short: as §1

[7] = tested on: green foxtail (Setaria viridis)
In short: as §1

[8] = tested on: itchgrass (Rottboellia cochinchinensis)
In short: as §1

[9] = tested on: prickly sida (Sida spinosa)
In short: as §1

[10] = tested on: naked crabgrass (Digitaria nuda)
In short: as §1

[11] = tested on: field bindweed (Convolvulus arvensis)
In short: as §1

[12] = tested on: johnsongrass (Sorghum halepense)
In short: as §1

[13] = tested on: barnyardgrass (Echinochloa crus-galli)
In short: as §1

[14] = tested on: Italian ryegrass (Lolium multiflorum)
In short: as §1

[15] = tested on: groundsel (common groundsel, Senecio vulgaris); settings: Postemergence
In short: as §1

[16] = Postemergence, 16 g ai/ha, scale 0 to 100
[17] = Postemergence, 31 g ai/ha, scale 0 to 100
[18] = Postemergence, 125 g ai/ha, scale 0 to 100 (0 no effect, 100 complete control)
[19] = Postemergence, 62 g ai/ha, scale 0 to 100 (0 no effect, 100 complete control)
[20] = Preemergence, 16 g ai/ha, scale 0 to 100, 0 no effect, 100 complete control
[21] = Preemergence, 31 g ai/ha, scale 0 to 100 (0 no effect, 100 complete control)
[22] = Preemergence, 62 g ai/ha, scale 0 to 100
[23] = Preemergence, 125 g ai/ha, scale 0 to 100
[24] = Postemergence, 31 g ai/ha, scale 0 to 100 (0 no effect, 100 complete control)

`O=C1CCCC(O)=C1C(=O)c1cnc(-c2cccs2)n(-c2ccccc2)c1=O` [Compound 66] was tested, and the “Plant response rating, Nutsedge, Purple” value [1, 16] was 0, the “Plant response rating, Nutsedge, Purple” value [1, 17] was 5 and the “Plant response rating, Nutsedge, Purple” value [1, 18] was 30. For the same molecule, the “Plant response rating, Nutsedge, Purple” value [1, 19] was 20, the “Plant response rating, Nutsedge, Purple” value [1, 20] was 0 and the “Plant response rating, Nutsedge, Purple” value [1, 21] was 0. For the same molecule, the “Plant response rating, Nutsedge, Purple” value [1, 22] was 35, the “Plant response rating, Nutsedge, Purple” value [1, 23] was 70 and the “Plant response rating, Sowthistle” value [2, 16] was 35. For the same molecule, the “Plant response rating, Sowthistle” value [2, 17] was 65, the “Plant response rating, Sowthistle” value [2, 18] was 90 and the “Plant response rating, Sowthistle” value [2, 19] was 70. The “Plant response rating, Sowthistle” value [2, 20] was 0, the “Plant response rating, Sowthistle” value [2, 21] was 0 and the “Plant response rating, Sowthistle” value [2, 23] was 0. For the same molecule, the “Plant response rating, Mallow” value [3, 16] was 25, the “Plant response rating, Mallow” value [3, 17] was 30 and the “Plant response rating, Mallow” value [3, 18] was 60. The “Plant response rating, Mallow” value [3, 19] was 60, the “Plant response rating, Mallow” value [3, 20] was 0 and the “Plant response rating, Mallow” value [3, 21] was 0. The “Plant response rating, Mallow” value [3, 22] was 5, the “Plant response rating, Mallow” value [3, 23] was 75 and the “Plant response rating, Guineagrass” value [4, 16] was 5. For the same molecule, the “Plant response rating, Guineagrass” value [4, 17] was 5, the “Plant response rating, Guineagrass” value [4, 18] was 30 and the “Plant response rating, Guineagrass” value [4, 19] was 10. For the same molecule, the “Plant response rating, Guineagrass” value [4, 20] was 0, the “Plant response rating, Guineagrass” value [4, 21] was 0 and the “Plant response rating, Guineagrass” value [4, 22] was 0. For the same molecule, the “Plant response rating, Guineagrass” value [4, 23] was 65, the “Plant response rating, Spanishneedles” value [5, 16] was 65 and the “Plant response rating, Spanishneedles” value [5, 17] was 70. The “Plant response rating, Spanishneedles” value [5, 18] was 80, the “Plant response rating, Spanishneedles” value [5, 19] was 80 and the “Plant response rating, Spanishneedles” value [5, 20] was 0. The “Plant response rating, Spanishneedles” value [5, 21] was 60, the “Plant response rating, Spanishneedles” value [5, 23] was 95 and the “Plant response rating, Bermudagrass” value [6, 16] was 5. For the same molecule, the “Plant response rating, Bermudagrass” value [6, 24] was 50, the “Plant response rating, Bermudagrass” value [6, 18] was 65 and the “Plant response rating, Bermudagrass” value [6, 19] was 65. For the same molecule, the “Plant response rating, Bermudagrass” value [6, 20] was 0, the “Plant response rating, Bermudagrass” value [6, 21] was 0 and the “Plant response rating, Bermudagrass” value [6, 22] was 5. The “Plant response rating, Bermudagrass” value [6, 23] was 5, the “Plant response rating, Foxtail, Green” value [7, 16] was 20 and the “Plant response rating, Foxtail, Green” value [7, 17] was 35. For the same molecule, the “Plant response rating, Foxtail, Green” value [7, 18] was 80, the “Plant response rating, Foxtail, Green” value [7, 19] was 65 and the “Plant response rating, Foxtail, Green” value [7, 20] was 0. The “Plant response rating, Foxtail, Green” value [7, 21] was 0, the “Plant response rating, Foxtail, Green” value [7, 22] was 0 and the “Plant response rating, Foxtail, Green” value [7, 23] was 5. The “Plant response rating, Itchgrass” value [8, 16] was 10, the “Plant response rating, Itchgrass” value [8, 17] was 15 and the “Plant response rating, Itchgrass” value [8, 18] was 40. For the same molecule, the “Plant response rating, Itchgrass” value [8, 19] was 35, the “Plant response rating, Itchgrass” value [8, 20] was 0 and the “Plant response rating, Itchgrass” value [8, 21] was 0. For the same molecule, the “Plant response rating, Itchgrass” value [8, 22] was 0, the “Plant response rating, Itchgrass” value [8, 23] was 0 and the “Plant response rating, Prickly Sida” value [9, 17] was 98. The “Plant response rating, Prickly Sida” value [9, 18] was 98, the “Plant response rating, Prickly Sida” value [9, 19] was 98 and the “Plant response rating, Prickly Sida” value [9, 20] was 0. For the same molecule, the “Plant response rating, Prickly Sida” value [9, 21] was 0, the “Plant response rating, Prickly Sida” value [9, 22] was 5 and the “Plant response rating, Prickly Sida” value [9, 23] was 90. For the same molecule, the “Plant response rating, Crabgrass, Naked” value [10, 17] was 50, the “Plant response rating, Crabgrass, Naked” value [10, 18] was 70 and the “Plant response rating, Crabgrass, Naked” value [10, 19] was 65. For the same molecule, the “Plant response rating, Crabgrass, Naked” value [10, 20] was 0, the “Plant response rating, Crabgrass, Naked” value [10, 21] was 0 and the “Plant response rating, Crabgrass, Naked” value [10, 22] was 10. For the same molecule, the “Plant response rating, Crabgrass, Naked” value [10, 23] was 25, the “Plant response rating, Field Bindweed” value [11, 16] was 0 and the “Plant response rating, Field Bindweed” value [11, 17] was 0. The “Plant response rating, Field Bindweed” value [11, 18] was 0, the “Plant response rating, Field Bindweed” value [11, 19] was 0 and the “Plant response rating, Field Bindweed” value [11, 20] was 0. The “Plant response rating, Field Bindweed” value [11, 21] was 0, the “Plant response rating, Field Bindweed” value [11, 22] was 0 and the “Plant response rating, Field Bindweed” value [11, 23] was 20. For the same molecule, the “Plant response rating, Johnsongrass” value [12, 16] was 0, the “Plant response rating, Johnsongrass” value [12, 17] was 20 and the “Plant response rating, Johnsongrass” value [12, 18] was 60. The “Plant response rating, Johnsongrass” value [12, 19] was 50, the “Plant response rating, Johnsongrass” value [12, 20] was 0 and the “Plant response rating, Johnsongrass” value [12, 21] was 0. The “Plant response rating, Johnsongrass” value [12, 22] was 0, the “Plant response rating, Johnsongrass” value [12, 23] was 30 and the “Plant response rating, Barnyardgrass” value [13, 16] was 35. For the same molecule, the “Plant response rating, Barnyardgrass” value [13, 24] was 65, the “Plant response rating, Barnyardgrass” value [13, 18] was 75 and the “Plant response rating, Barnyardgrass” value [13, 19] was 70. For the same molecule, the “Plant response rating, Barnyardgrass” value [13, 20] was 0, the “Plant response rating, Barnyardgrass” value [13, 21] was 0 and the “Plant response rating, Barnyardgrass” value [13, 22] was 5. For the same molecule, the “Plant response rating, Barnyardgrass” value [13, 23] was 75, the “Plant response rating, Ryegrass, Italian” value [14, 16] was 0 and the “Plant response rating, Ryegrass, Italian” value [14, 17] was 0. For the same molecule, the “Plant response rating, Ryegrass, Italian” value [14, 18] was 15, the “Plant response rating, Ryegrass, Italian” value [14, 19] was 0 and the “Plant response rating, Ryegrass, Italian” value [14, 20] was 0. The “Plant response rating, Ryegrass, Italian” value [14, 21] was 0, the “Plant response rating, Ryegrass, Italian” value [14, 23] was 0 and the “Plant response rating, Groundsel” value ([15]; 31 g ai/ha, scale 0 to 100) was 60. The “Plant response rating, Groundsel” value ([15]; 125 g ai/ha, scale 0 to 100 (0 no effect, 100 complete control)) was 80 and the “Plant response rating, Groundsel” value ([15]; 62 g ai/ha, scale 0 to 100 (0 no effect, 100 complete control)) was 80.
